Results on seven compounds are retold here after patent publication US5378838A, “Benzodiazepine cholecystokinin antagonists” (Merck & Co., Inc., priority 1993, dated 1995).

One assay concerns CCK-B receptors. The following applies: literature; cited from earlier work.
A further assay relates to CCK. To be noted: literature; cited from earlier work.
A further assay deals with T1, CCK receptor (brain) (Cavia porcellus, UniProt H0VZC5).
T1 construct: the cortex was removed and homogenized in 25 mL ice-cold 0.32M sucrose; from tissue; host or cells: cortex P2 membranes of male Hartley guinea pigs
T1 sequence (H0VZC5 1-426): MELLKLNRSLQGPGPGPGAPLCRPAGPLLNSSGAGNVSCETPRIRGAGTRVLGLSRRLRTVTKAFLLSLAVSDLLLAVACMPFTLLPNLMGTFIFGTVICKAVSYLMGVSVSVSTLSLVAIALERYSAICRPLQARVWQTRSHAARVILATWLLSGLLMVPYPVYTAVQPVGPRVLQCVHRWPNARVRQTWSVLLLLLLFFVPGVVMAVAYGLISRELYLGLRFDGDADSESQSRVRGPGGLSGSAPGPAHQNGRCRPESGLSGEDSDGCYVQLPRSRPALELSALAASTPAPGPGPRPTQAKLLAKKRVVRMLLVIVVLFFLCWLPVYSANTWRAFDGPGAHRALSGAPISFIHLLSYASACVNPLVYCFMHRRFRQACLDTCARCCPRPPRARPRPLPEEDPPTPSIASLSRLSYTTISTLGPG
As to the kind of experiment: CCK Receptor Binding (Brain), inhibition of 125I-CCK-8 binding. The following applies: guinea pig cortex, 50 pM 125I-CCK-8, pH 6.5, 25° C., 2 hours. Set-up: species or system guinea pig (male Hartley).

A further assay concerns the target T2, CCK receptor (pancreas) (Rattus norvegicus, UniProt P30551).
T2 construct: The whole pancreas was dissected free of fat tissue and was homogenized; from tissue; host or cells: whole pancreas membranes of male Sprague-Dawley rats
T2 sequence (P30551 1-444): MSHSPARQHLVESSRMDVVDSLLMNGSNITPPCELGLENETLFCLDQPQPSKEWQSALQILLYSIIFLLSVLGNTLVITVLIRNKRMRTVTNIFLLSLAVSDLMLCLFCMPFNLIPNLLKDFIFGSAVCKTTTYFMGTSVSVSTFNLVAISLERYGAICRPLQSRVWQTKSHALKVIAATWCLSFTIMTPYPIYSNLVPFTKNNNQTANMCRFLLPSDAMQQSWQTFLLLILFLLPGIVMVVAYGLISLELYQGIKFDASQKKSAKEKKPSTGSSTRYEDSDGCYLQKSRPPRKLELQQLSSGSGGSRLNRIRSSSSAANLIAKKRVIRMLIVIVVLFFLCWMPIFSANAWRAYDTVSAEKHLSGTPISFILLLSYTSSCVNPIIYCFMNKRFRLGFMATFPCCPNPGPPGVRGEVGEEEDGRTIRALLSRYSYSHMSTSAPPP
Put plainly: CCK Receptor Binding (Pancreas), inhibition of 125I-CCK-8 binding. Further details: species or system rat (male Sprague-Dawley). The procedure:
1. CCK Receptor Binding (Pancreas)
Male Sprague-Dawley rats (150-200 g) were sacrificed by decapitation. The whole pancreas was dissected free of fat tissue and was homogenized in 25 volumes of ice-cold 10 mM Hepes buffer with 0.1% soya bean trypsin inhibitor (pH 7.4 at 25° C.) with a Kinematica Polytron. The homogenates were centrifuged at 47,800 g for 10 min. Pellets were resuspended in 10 volumes of binding assay buffer (20 mM Hepes, 1 mM EGTA, 5 mM MgCl2, 150 mM NaCl, bacitracin 0.25 mg/ml, soya bean trypsin inhibitor 0.1 mg/ml, and bovine serum albumin 2 mg/ml, pH 6.5 at 25° C.) using a teflon homogenizer, 15 strokes at 500 rpm. The homogenate was further diluted in binding assay buffer to give a final concentration of 0.5 mg original wet weight/l ml buffer. […] All assays were run in duplicate. The reaction mixtures were incubated at 25° C. for 2 hours and the reaction terminated by rapid filtration (Brandell 24 well cell harvester) over Whatman GF/C filters, washing 3×4 mls with ice-cold 100 mM NaCl. The radioactivity on the filters was counted with a LKB gamma counter.
Drug displacement studies were performed with at least 10 concentrations of compounds of formula 1 and the IC50 values were determined by regression analysis.

Where two headings read alike, the source gives them in different places. Non-standard residues stand in square brackets, D forms with d. Residues, ends and D or L forms follow the SMILES beside them. *: point of attachment. sY = N[C@@H](Cc1ccc(OS(=O)(=O)O)cc1)C(=O)O; Cbz = O=C(OCc1ccccc1)*

Experimental for CCK receptor (brain): CCK-8 sulphated was radiolabelled and the binding was performed according to the description for the pancreas method with minor modifications.
Male Hartley guinea pigs (300-500g) were sacrificed by decapitation and the cortex was removed and homogenized in 25 mL ice-cold 0.32M sucrose. The homogenates were centrifuged at 1000 g for 10 minutes and the resulting supernatant was recentrifuged at 20,000 g for 20 minutes. […] All assays were run in duplicate. The reaction mixtures were incubated at 25° C. for 2 hours and then the reaction was terminated on Whatman GF/C filters by rapid filtration (Brandell 24 well cell Harvester) with 3×5 ml washes of cold 100 mM NaCl. The radioactivity on the filters was then counted with a LKB gamma counter.
Drug displacement studies were performed with at least 10 concentrations of compounds of formula 1 and the IC50 values were determined by regression analysis. IC50 refers to the concentration of the compound required to inhibit 50% of specific binding of ^125 I-CCK-8.

Regarding `Cc1cccc(NC(=O)N[C@@H]2N=C(c3ccccc3)c3ccccc3N(C)C2=O)c1` [(R)-N-(2,3-dihydro-1-methyl-2-oxo-5-phenyl-1H-1,4-benzodiazepin-3-yl)-N^1-(3-methylphenyl) urea], the “antagonist of CCK-B receptors (in words)” value in the assay with CCK-B receptors was “potent and selective antagonist of CCK-B receptors”.

Consider `CSCC[C@H](NC(=O)[C@H](Cc1ccc(OS(=O)(=O)O)cc1)NC(=O)OCc1ccccc1)C(=O)NCC(=O)N[C@@H](Cc1c[nH]c2ccccc12)C(=O)N[C@@H](CCSC)C(=O)N[C@@H](CC(=O)O)C(N)=O` [Cbz-Tyr(SO3 H)-Met-Gly-Trp-Met-Asp-NH2] (Cbz-[sY]MGWMD-NH2), for which the “CCK antagonist / agonist activity (in words)” value with CCK is “partial agonist”. As for `CN1C(=O)[C@H](NC(=O)Nc2ccc3c(c2)CCC(N)(C(=O)O)C3)N=C(c2ccccc2)c2ccccc21` (stereo partly drawn) [Example 20, N-{(3R)-1,3-Dihydro-1-methyl-2-oxo-5-phenyl-1H-1,4-benzodiazepin-3-yl}-N'-{[6-(2-(R,S)-amino-1,2,3,4-tetrahydro-2-naphthoic acid)]-urea}], the IC50 (usually the concentration needed to halve the response being measured) was 3.52 µM on CCK receptor (brain) and greater than 3 µM at CCK receptor (pancreas).

As for `COC(=O)C1(NC(=O)OC(C)(C)C)CCc2c(cccc2NC(=O)N[C@@H]2N=C(c3ccccc3)c3ccccc3N(C)C2=O)C1` (stereo partly drawn) [Example 21, N-{(3R)-1,3-Dihydro-1-methyl-2-oxo-5-phenyl-1H-1,4-benzodiazepin-3-yl}-N'-{[5-(methyl-2-(R,S)-tert-butyloxycarbonylamino-1,2,3,4-tetrahydro-2-naphthoate)]-urea}], the IC50 on CCK receptor (brain) is 1.69 µM; on CCK receptor (pancreas) (read-out: IC50 125I-CCK Pancreas, rat pancreas, 50 pM 125I-CCK-8, pH 6.5, 25° C., 2 hours), greater than 3 µM. With `COC(=O)C1(N)CCc2c(cccc2NC(=O)N[C@@H]2N=C(c3ccccc3)c3ccccc3N(C)C2=O)C1` (stereo partly drawn) [Example 22, N-{(3R)-1,3-Dihydro-1-methyl-2-oxo-5-phenyl-1H-1,4-benzodiazepin-3-yl}-N'-{[5-(methyl-2-(R,S)-amino-1,2,3,4-tetrahydro-2-naphthoate)]-urea}], the IC50 at CCK receptor (brain) was 2.16 µM; on CCK receptor (pancreas) it was greater than 3 µM. For `CN1C(=O)[C@H](NC(=O)Nc2cccc3c2CCC(N)(C(=O)O)C3)N=C(c2ccccc2)c2ccccc21` (stereo partly drawn) [Example 23, N-{(3R)-1,3-Dihydro-1-methyl-2-oxo-5-phenyl-1H-1,4-benzodiazepin-3-yl}-N'-{[5-(2-(R,S)-amino-1,2,3,4-tetrahydro-2-naphthoic acid)]-urea}], in that order: greater than 3 µM and greater than 3 µM. For the compound `CCCC(=O)Nc1nc2c(ncn2[C@@H]2O[C@@H]3COP(=O)(O)O[C@H]3[C@H]2OC(=O)CCC)c(=O)[nH]1` [dibutyryl cyclic GMP], the “CCK antagonist / agonist activity (in words)” value in the assay with CCK was “the most potent”.
